According to US20250263408A1 (Uniquest Pty Ltd, priority 2022, published 2025):

Assays:
[1] = molecular target: T1, Syk (Homo sapiens, UniProt P43405); test: Syk Biochemical Assay (ADP-Glo luminescence); conditions: ATP 40 μM final, 60 minutes, read-out: SYK Biochem IC50
T1 construct: purchased Promega
Method: Compounds were serially diluted in 100% DMSO, prior to an intermediate dilution in water. In a low volume white 384-well Proxiplate (Perkin Elmer), 1 μL of compound (0.4% final DMSO) was added to 3 μL of 10 ng/well Syk (Promega) and 0.2 mg/mL Poly-E4Y1 substrate (Promega) in assay buffer (final 40 mM Tris-HCl pH 7.4, 20 mM MgCl2, 0.1 mg/mL BSA) for 5 minutes. The reaction was initiated by addition of 1 μL of ATP (40 μM final) and allowed to proceed for 60 minutes at room temperature. The reaction was terminated by addition of 5 μL of ADP-Glo Reagent Mix (Promega) containing 1 mM MgCl2 for 45 minutes at room temperature. 10 μL of Kinase Detection Reagent (Promega) was added and incubated for 10 minutes at room temperature, before luminescence was measured using an Ensight Multimode Plate Reader (Perkin Elmer).

[2] = molecular target: T2, Ba/F3-Syk cells (Homo sapiens, UniProt P43405); test: Ba/F3 Proliferation Assay, Ba/F3-Syk cells (Resazurin); assay type: cell-based; conditions: 48-hour incubation
T2 construct: fused on or other part: Possible but unprinted fusion partner: TEL (ETV6), the usual partner for Ba/F3 lines transformed by Syk; Nothing on a partner is printed

[3] = test system: Ba/F3-WT (wild type) cells; test: Ba/F3 Proliferation Assay, Ba/F3-WT (wild type) cells with mIL-3 (Resazurin); assay type: cell-based; conditions: Ba/F3-WT cells +mIL-3, 48-hour incubation

IC50 [1] [nM]	EC50 [2] [nM]	EC50 [3] [nM]	EC50 ([3]; Mus musculus, BaF3, 48 h) [nM]	Structure (SMILES)
23.6	55.5	575	–	CC(C)(C)n1cc(-c2cc3ncccc3c(OC[C@H]3OC[C@@H]4C[C@H]3N4)n2)cn1 (relative stereo) [Compound 2.106, 7-(1-tert-butyl-1H-pyrazol-4-yl)-5-{[rel-(1R,2S,5S)-3-oxa-6-azabicyclo[3.1.1]heptan-2-yl]methoxy}-1,6-naphthyridine]
12.9	6.1	–	2670	Cc1ccnc2cc(-c3cnn(C(C)(C)C)c3)nc(OC[C@@H]3CNCC(C)(C)O3)c12 (stereo in doubt) [Compound 14.6, 7-(1-tert-butyl-1H-pyrazol-4-yl)-5-[(6,6-dimethylmorpholin-2-yl)methoxy]-4-methyl-1,6-naphthyridine]
50.8	92.8	–	1250	Cn1cc(-c2cc3ncccc3c(OCC3CNCCO3)n2)cn1 (stereo not drawn) [Compound 2.1, 7-(1-methyl-1H-pyrazol-4-yl)-5-[(morpholin-2-yl)methoxy]-1,6-naphthyridine]
130	355	–	1760	Cn1cc(-c2cc3ncccc3c(OC[C@H]3CNCCO3)n2)cn1 [Compound 2.2, 7-(1-methyl-1H-pyrazol-4-yl)-5-{[(2R)-morpholin-2-yl]methoxy}-1,6-naphthyridine]
39	105	–	2350	Cn1cc(-c2cc3ncccc3c(OC[C@@H]3CNCCO3)n2)cn1 [Compound 2.3, 7-(1-methyl-1H-pyrazol-4-yl)-5-{[(2S)-morpholin-2-yl]methoxy}-1,6-naphthyridine]
38.9	76.7	–	2540	C[C@@H](Oc1nc(-c2cnn(C)c2)cc2ncccc12)[C@@H]1CNCCO1 [Compound 2.5, 7-(1-methyl-1H-pyrazol-4-yl)-5-[(1R)-1-[(2S)-morpholin-2-yl]ethoxy]-1,6-naphthyridine]
15.6	57.2	–	1530	CCn1cc(-c2cc3ncccc3c(OC[C@@H]3CNCCO3)n2)cn1 [Compound 2.6, 7-(1-ethyl-1H-pyrazol-4-yl)-5-{[(2S)-morpholin-2-yl]methoxy}-1,6-naphthyridine]
12.8	37.6	–	934	CC(C)n1cc(-c2cc3ncccc3c(OC[C@@H]3CNCCO3)n2)cn1 [Compound 2.7, 5-{[(2S)-morpholin-2-yl]methoxy}-7-[1-(propan-2-yl)-1H-pyrazol-4-yl]-1,6-naphthyridine]
37.4	196	–	1440	COCCn1cc(-c2cc3ncccc3c(OC[C@@H]3CNCCO3)n2)cn1 [Compound 2.8, 7-[1-(2-methoxyethyl)-1H-pyrazol-4-yl]-5-{[(2S)-morpholin-2-yl]methoxy}-1,6-naphthyridine]
40.6	187	–	2360	COCn1cc(-c2cc3ncccc3c(OC[C@@H]3CNCCO3)n2)cn1 [Compound 2.9, 7-[1-(methoxymethyl)-1H-pyrazol-4-yl]-5-{[(2S)-morpholin-2-yl]methoxy}-1,6-naphthyridine]
14.5	39.9	–	2780	CC(C)(C)n1cc(-c2cc3ncccc3c(OC[C@@H]3CNCCO3)n2)cn1 [Compound 2.10, 7-(1-tert-butyl-1H-pyrazol-4-yl)-5-{[(2S)-morpholin-2-yl]methoxy}-1,6-naphthyridine]
51.6	79	–	2400	Cn1cc(-c2cc3ncccc3c(OCC3CNCC(C)(C)O3)n2)cn1 (stereo not drawn) [Compound 2.13, 5-[(6,6-dimethylmorpholin-yl)methoxy]-7-(1-methyl-1H-pyrazol-4-yl)-1,6-naphthyridine]
74.8	139	–	2890	FC(F)n1cc(-c2cc3ncccc3c(OC[C@@H]3CNCCO3)n2)cn1 [Compound 2.15, 7-[1-(difluoromethyl)-1H-pyrazol-4-yl]-5-{[(2S)-morpholin-2-yl]methoxy}-1,6-naphthyridine]
222	493	–	> 10000	FC(F)(F)n1cc(-c2cc3ncccc3c(OC[C@@H]3CNCCO3)n2)cn1 [Compound 2.16, 5-{[(2S)-morpholin-2-yl]methoxy}-7-[1-(trifluoromethyl)-1H-pyrazol-4-yl]-1,6-naphthyridine]
789	2460	–	> 10000	FC(F)(F)c1[nH]ncc1-c1cc2ncccc2c(OC[C@@H]2CNCCO2)n1 [Compound 2.17, 5-{[(2S)-morpholin-2-yl]methoxy}-7-[5-(trifluoromethyl)-1H-pyrazol-4-yl]-1,6-naphthyridine]
47.2	78.2	–	1860	Cc1cc(-c2cc3ncccc3c(OC[C@@H]3CNCCO3)n2)cs1 [Compound 2.18, 7-(5-methylthiophen-3-yl)-5-{[(2S)-morpholin-2-yl]methoxy}-1,6-naphthyridine]
68.5	198	–	2780	Cc1ccc(-c2cc3ncccc3c(OC[C@@H]3CNCCO3)n2)s1 [Compound 2.19, 7-(5-methylthiophen-2-yl)-5-{[(2S)-morpholin-2-yl]methoxy}-1,6-naphthyridine]
82.8	61	–	2700	c1cnc2cc(-c3cnn(C4CC4)c3)nc(OC[C@@H]3CNCCO3)c2c1 [Compound 2.21, 7-(1-cyclopropyl-1H-pyrazol-4-yl)-5-{[(2S)-morpholin-2-yl]methoxy}-1,6-naphthyridine]
28.1	30.6	–	694	c1cnc2cc(-c3cnn(C4CCC4)c3)nc(OC[C@@H]3CNCCO3)c2c1 [Compound 2.22, 7-(1-cyclobutyl-1H-pyrazol-4-yl)-5-{[(2S)-morpholin-2-yl]methoxy}-1,6-naphthyridine]
106	440	–	5800	c1cnc2cc(-c3cn[nH]c3)nc(OC[C@@H]3CNCCO3)c2c1 [Compound 2.23, 5-{[(2S)-morpholin-2-yl]methoxy}-7-(1H-pyrazol-4-yl)-1,6-naphthyridine]
23.5	48.4	–	4760	Cn1cc(-c2cc3ncccc3c(OC[C@@H]3CNCC(C)(C)O3)n2)cn1 [Compound 2.32, 5-{[(2S)-6,6-dimethylmorpholin-2-yl]methoxy}-7-(1-methyl-1H-pyrazol-4-yl)-1,6-naphthyridine]
31.9	79.9	–	2520	Cn1cc(-c2cc3ncccc3c(OC[C@@H]3CNCC4(CC4)O3)n2)cn1 [Compound 2.43, 7-(1-methyl-1H-pyrazol-4-yl)-5-{[(5S)-4-oxa-7-azaspiro[2.5]octan-5-yl]methoxy}-1,6-naphthyridine]
9.2	17.8	–	1480	CC(C)n1cc(-c2cc3ncccc3c(OC[C@@H]3CNCC(C)(C)O3)n2)cn1 [Compound 2.45, 5-{[(2S)-6,6-dimethylmorpholin-2-yl]methoxy}-7-[1-(propan-2-yl)-1H-pyrazol-4-yl]-1,6-naphthyridine]
19	65	–	3430	CC1(C)CNC[C@@H](COc2nc(-c3cnn(C4CC4)c3)cc3ncccc23)O1 [Compound 2.46, 7-(1-cyclopropyl-1H-pyrazol-4-yl)-5-{[(2S)-6,6-dimethylmorpholin-2-yl]methoxy}-1,6-naphthyridine]
71	47.1	–	3050	CC(C)(C)n1cc(-c2cc3ncccc3c(OC[C@@H]3CNCCCO3)n2)cn1 [Compound 2.49, 7-(1-tert-butyl-1H-pyrazol-4-yl)-5-{[(2S)-1,4-oxazepan-2-yl]methoxy}-1,6-naphthyridine]
22.1	57.4	–	9830	Cn1ccc(-c2cc3ncccc3c(OC[C@@H]3CNCCCO3)n2)c1 [Compound 2.52, 7-(1-methyl-1H-pyrrol-3-yl)-5-{[(2S)-1,4-oxazepan-2-yl]methoxy}-1,6-naphthyridine]
10	21.6	–	> 10000	CC1(C)CNC[C@@H](COc2nc(-c3ccn(C(C)(C)C)c3)cc3ncccc23)O1 [Compound 2.57, 7-(1-tert-butyl-1H-pyrrol-3-yl)-5-{[(2S)-6,6-dimethylmorpholin-2-yl]methoxy}-1,6-naphthyridine]
9.6	25.4	–	6710	CC(C)(C)n1ccc(-c2cc3ncccc3c(OC[C@@H]3CNCCO3)n2)c1 [Compound 2.58, 7-(1-tert-butyl-1H-pyrrol-3-yl)-5-{[(2S)-morpholin-2-yl]methoxy}-1,6-naphthyridine]
24.6	26.6	–	4070	Cn1ccc(-c2cc3ncccc3c(OC[C@@H]3CNCC4(CC4)O3)n2)c1 [Compound 2.60, 7-(1-methyl-1H-pyrrol-3-yl)-5-{[(5S)-4-oxa-7-azaspiro[2.5]octan-5-yl]methoxy}-1,6-naphthyridine]
26.4	20.6	–	2870	CC(C)(C)n1cc(-c2cc3ncccc3c(OC[C@@H]3CNCC4(CC4)O3)n2)cn1 [Compound 2.63, 7-(1-tert-butyl-1H-pyrazol-4-yl)-5-{[(5S)-4-oxa-7-azaspiro[2.5]octan-5-yl]methoxy}-1,6-naphthyridine]
